This note sets out measurements from ChEMBL document CHEMBL1201862, “PubChem BioAssay data set” (2004).

Structures are written as SMILES.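 Cells were grown in 96-well plates and exposed to each compound for 48 hours at five concentrations; endpoints were interpolated linearly between bracketing concentrations, or set to the highest concentration if not reached. Abbreviation: GI50, concentration required for 50% inhibition of growth.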 Calls of active or inactive are those of the source. Rule as the data show it: active = GI50 up to about 1.1 µM and inactive = higher.

Test systems include DU-145; COLO 205; SK-MEL-2; SK-MEL-28; UO-31; A549; SK-MEL-5; OVCAR-5; OVCAR-3; TK-10; T47D; RPMI-8226; SF-539; Hs-578T; NCI-H460; UACC-257; CAKI-1; NCI/ADR-RES; KM12; CCRF-CEM.
Assay in all cases: inhibition of tumour cell growth, NCI panel, 48 h

For `Cc1ccc(Nc2nnc(-c3ccc4c(c3)OCO4)o2)c(C)c1`, the GI50 in the test with DU-145, in the test with COLO 205, in the test on SK-MEL-2, in the test on SK-MEL-28, in the test with UO-31 and in the test with A549 was > 100 µM (inactive) in each case. In addition, the GI50 in the test on SK-MEL-5 was > 100 µM (inactive); with OVCAR-5 it was > 100 µM (inactive); in the test with OVCAR-3, > 100 µM (inactive); in the test on TK-10 it was > 100 µM (inactive); with T47D, 36.2 µM (inactive); with RPMI-8226, 54 µM (inactive). In addition, the GI50 is 64.6 µM (inactive) in the test on SF-539; > 100 µM (inactive) with Hs-578T; > 100 µM (inactive) with NCI-H460; > 100 µM (inactive) in the test with UACC-257; > 100 µM (inactive) in the test with CAKI-1; > 100 µM (inactive) with NCI/ADR-RES. Besides, the GI50 in the test with KM12 was > 100 µM (inactive).

For `O=c1cc(-c2ccccc2)[nH]c2cccc(S)c12`, the GI50 with DU-145 was 0.393 µM (active); in the test with COLO 205, 0.249 µM (active); in the test with SK-MEL-28, 0.564 µM (active); with A549, 0.44 µM (active); with SK-MEL-5, 0.0944 µM (active); in the test with OVCAR-5 it was > 100 µM (inactive). The GI50 is 3.14 µM (inactive) in the test with OVCAR-3; 8.32 µM (inactive) in the test with T47D; 0.424 µM (active) in the test with RPMI-8226; 0.2 µM (active) in the test on SF-539; 0.205 µM (active) in the test with Hs-578T; 0.301 µM (active) in the test on NCI-H460. The GI50 is 0.0762 µM (active) in the test on UACC-257, 0.177 µM (active) with CCRF-CEM, 0.0796 µM (active) with NCI/ADR-RES and 0.277 µM (active) in the test on KM12.

In the case of `Cc1ccc2c(=O)c(C(=O)Nn3c(C)csc3=S)c[nH]c2n1`, the GI50 with DU-145, in the test on COLO 205, in the test on SK-MEL-2, with SK-MEL-28, in the test on UO-31 and with A549 was > 100 µM (inactive) each time. Also, the GI50 in the test on SK-MEL-5, in the test on OVCAR-5, in the test on OVCAR-3, with TK-10, in the test with T47D and in the test with RPMI-8226 was > 100 µM (inactive) throughout. Moreover, the GI50 with Hs-578T is > 100 µM (inactive); in the test on NCI-H460, > 100 µM (inactive); in the test on UACC-257 it was > 100 µM (inactive); in the test on CAKI-1, 69 µM (inactive); in the test on CCRF-CEM, > 100 µM (inactive); with NCI/ADR-RES it was > 100 µM (inactive). Also, the GI50 with KM12 is > 100 µM (inactive).

With `Cc1cc(NS(=O)(=O)c2ccc(Nc3c4ccccc4nc4c(C(=O)NCCO)cccc34)cc2)no1`, the GI50 in the test on DU-145 is 34.7 µM (inactive); in the test with COLO 205 it was 32.9 µM (inactive); in the test with SK-MEL-2, 22.2 µM (inactive); with SK-MEL-28 it was 30.3 µM (inactive); in the test with UO-31, 25.2 µM (inactive); with A549 it was 37.3 µM (inactive). The GI50 with SK-MEL-5 is 23.4 µM (inactive); with OVCAR-5 it was 13.3 µM (inactive); in the test on OVCAR-3, 21.9 µM (inactive); in the test on TK-10 it was 35.6 µM (inactive); in the test on T47D, 19.7 µM (inactive); with RPMI-8226, 19.4 µM (inactive). The GI50 in the test on Hs-578T was 21.2 µM (inactive); in the test on NCI-H460 it was 28.6 µM (inactive); in the test on UACC-257, 75.3 µM (inactive); in the test with CAKI-1 it was 26.1 µM (inactive); in the test on CCRF-CEM, 15.2 µM (inactive); with NCI/ADR-RES, > 100 µM (inactive). Also, the GI50 with KM12 was 23.9 µM (inactive).

Regarding `O=C1/C(=N/N=C(c2ccccc2)c2ccccc2)c2ccccc2-c2ccccc21`, the GI50 is > 100 µM (inactive) in the test on DU-145; > 100 µM (inactive) in the test with COLO 205; > 100 µM (inactive) with SK-MEL-2; > 100 µM (inactive) in the test with SK-MEL-28; 45.5 µM (inactive) with UO-31; > 100 µM (inactive) in the test on A549. Also, the GI50 is 99.5 µM (inactive) in the test with SK-MEL-5; > 100 µM (inactive) with OVCAR-5; 40.8 µM (inactive) in the test with OVCAR-3; 75.5 µM (inactive) with TK-10; 32.8 µM (inactive) in the test with T47D; > 100 µM (inactive) in the test on SF-539. For the same molecule, the GI50 is 29.6 µM (inactive) in the test on Hs-578T; > 100 µM (inactive) in the test on NCI-H460; > 100 µM (inactive) in the test with UACC-257; 37.6 µM (inactive) in the test on CAKI-1; 54 µM (inactive) in the test with NCI/ADR-RES; > 100 µM (inactive) in the test with KM12.

Regarding `C[C@@H](CO)C1=C(O)C(=O)c2c(ccc3c2CCCC3(C)C)C1=O`, the GI50 in the test with DU-145 is 47 µM (inactive); in the test on COLO 205, 38.3 µM (inactive); with SK-MEL-2, 23.2 µM (inactive); with SK-MEL-28 it was 30.8 µM (inactive); with UO-31, 33.3 µM (inactive); with A549, 32.1 µM (inactive). The GI50 with SK-MEL-5 was 30.5 µM (inactive); with OVCAR-5, 36.6 µM (inactive); in the test with OVCAR-3 it was 28.2 µM (inactive); with TK-10, 45.4 µM (inactive); in the test with T47D, 50.6 µM (inactive); in the test with RPMI-8226, 23 µM (inactive). Moreover, the GI50 is 51.2 µM (inactive) with Hs-578T; 32.1 µM (inactive) in the test on UACC-257; 44.9 µM (inactive) with CAKI-1; 3.33 µM (inactive) in the test with CCRF-CEM; 38.8 µM (inactive) in the test on NCI/ADR-RES; 37.2 µM (inactive) in the test with KM12.

For the molecule `O=C1NC(=O)/C(=C/c2ccc(S(=O)(=O)N/N=C\C(O)C(O)C(O)C(O)CO)cc2)N1` (centres undefined), the GI50 in the test with DU-145, in the test on COLO 205, in the test on SK-MEL-2, in the test on SK-MEL-28, with UO-31 and in the test with A549 was > 100 µM (inactive) each time. For the same molecule, the GI50 in the test with SK-MEL-5, in the test with OVCAR-5, with OVCAR-3, in the test on TK-10, with T47D and with RPMI-8226 was > 100 µM (inactive) throughout. Besides, the GI50 in the test with Hs-578T, with NCI-H460, with UACC-257, with CAKI-1, in the test with CCRF-CEM and in the test on NCI/ADR-RES was > 100 µM (inactive) in each case. Moreover, the GI50 with KM12 was > 100 µM (inactive).

With `CC(C)C1=CC(=O)[C@@](C)(C2[C@H](O)C[C@@]3(C)[C@@H]4CC=C5[C@@H](CC[C@@H](OC6OCC(O)C(O)C6OC6OC(C)C(O)C(O)C6O)C5(C)C)[C@]4(C)C(=O)C[C@]23C)O1` (some centres undefined), the GI50 in the test on DU-145, in the test on COLO 205, in the test on SK-MEL-28, with UO-31, in the test with A549 and in the test on SK-MEL-5 was > 100 µM (inactive) each time. The GI50 in the test with OVCAR-5, in the test with OVCAR-3, in the test on T47D, in the test with RPMI-8226, with Hs-578T and in the test with NCI-H460 was > 100 µM (inactive) throughout. For the same molecule, the GI50 with CAKI-1, in the test on CCRF-CEM, in the test with NCI/ADR-RES and in the test on KM12 was > 100 µM (inactive) throughout.

For the molecule `COc1cc(CNNC(N)=S)cc(OC)c1OC`, the GI50 in the test with DU-145, with COLO 205, with SK-MEL-28, with UO-31, in the test with A549 and in the test on SK-MEL-5 was > 100 µM (inactive) each time. Besides, the GI50 in the test with OVCAR-5 is 95.1 µM (inactive); in the test on OVCAR-3, > 100 µM (inactive); with TK-10, > 100 µM (inactive); in the test with T47D, 7.03 µM (inactive); in the test on RPMI-8226 it was > 100 µM (inactive); in the test with SF-539 it was > 100 µM (inactive). Also, the GI50 in the test with Hs-578T was > 100 µM (inactive); with NCI-H460, > 100 µM (inactive); in the test on UACC-257 it was > 100 µM (inactive); with CAKI-1, 6.27 µM (inactive); in the test on CCRF-CEM, > 100 µM (inactive); in the test with NCI/ADR-RES, > 100 µM (inactive). In addition, the GI50 in the test on KM12 was > 100 µM (inactive).

Turning to `CN(CCCNC(=O)c1n[nH]c2c1ccc1ccccc12)CCCNC(=O)c1n[nH]c2c1ccc1ccccc12`, the GI50 in the test with DU-145 is 15.7 µM (inactive); in the test on COLO 205 it was 2.69 µM (inactive); in the test on SK-MEL-2, 10.6 µM (inactive); with SK-MEL-28, 2.09 µM (inactive); with UO-31, 14.6 µM (inactive); with A549 it was 19.3 µM (inactive). Besides, the GI50 in the test on SK-MEL-5 is 4.68 µM (inactive); in the test with OVCAR-5, 20.4 µM (inactive); with OVCAR-3, 13.8 µM (inactive); in the test with TK-10, 17.9 µM (inactive); with T47D it was 16 µM (inactive); in the test with SF-539 it was 11 µM (inactive). Further, the GI50 in the test on Hs-578T is 16.8 µM (inactive); in the test with NCI-H460, 18 µM (inactive); in the test on UACC-257, 4.24 µM (inactive); in the test with CAKI-1, 16.8 µM (inactive); in the test with CCRF-CEM, 11.1 µM (inactive); in the test on NCI/ADR-RES it was > 100 µM (inactive). In the test on KM12, the GI50 is 16.9 µM (inactive).

With `COc1ccccc1-c1nc(O)c2ccccc2n1`, the GI50 with DU-145, with COLO 205, with SK-MEL-2, with UO-31, in the test on A549 and in the test with SK-MEL-5 was > 100 µM (inactive) in each case. In addition, the GI50 with OVCAR-5 was > 100 µM (inactive); in the test with OVCAR-3, > 100 µM (inactive); with T47D, 49.9 µM (inactive); in the test on RPMI-8226, > 100 µM (inactive); in the test with Hs-578T it was > 100 µM (inactive); with NCI-H460 it was > 100 µM (inactive). Besides, the GI50 with UACC-257, with CAKI-1, with CCRF-CEM, with NCI/ADR-RES and with KM12 was > 100 µM (inactive) throughout.
